According to patent publication US11633434B2, “Topical kits and compositions and use thereof” (priority 2017, dated 2023):
Starred links: 1 amine or outer side, 2 acyl side, 3 side chain; linkers in the order of their positions; H or OH if unused. Positions of bridges follow the written chain, without caps; N, C: chain ends. Non-standard residues stand in square brackets, D forms with d. Residues, ends and D or L forms follow the SMILES beside them. X1 = CC(C)CCCCCCCCC[C@H](CC(=O)[*:1])O[*:2]

What was measured:
C. albicans [1] = conditions: reported value; cited from earlier work
C. albicans [2] = assay: Antifungal activity of the formula, disk diffusion method; assay type: cell-based; conditions: Candida albicans, 48 h, read-out: diameter inhibition zones
Experimental: The antifungal activity of the bacillus (10^8/ml) in the formula was determined using the disk diffusion method and was compared to that of empty formulation (without bacillus) and of ketoconazole 2% w/v in ethylene glycol (FIG. 11). A lawn of C. albicans (100 μl of 10^7 cells/ml) was spread on yeast extract-peptone-dextrose (YPD) agar petri dishes and tested solutions (10 μl ) were loaded on paper filter disks (6 mm in diameter) placed at the center of each dish and incubated at 37° C. for 48 h.

Compound | synergistic anti-fungal MIC (C. albicans [1]) [µg/mL] | zone of inhibition at 2 % strength (C. albicans [2]) [mm]
CC(C)CCCCCCCCC[C@@H]1CC(=O)N[C@@H](CCC(=O)O)C(=O)N[C@@H](CC(C)C)C(=O)N[C@H](CC(C)C)C(=O)N[C@@H](C(C)C)C(=O)N[C@@H](CC(=O)O)C(=O)N[C@H](CC(C)C)C(=O)N[C@@H](CC(C)C)C(=O)O1 [Surfactin C15] (EL[dL]VD[dL]L; linker N-C via X1) | 6.25 | –
CC(=O)N1CCN(c2ccc(OCC3COC(Cn4ccnc4)(c4ccc(Cl)cc4Cl)O3)cc2)CC1 (centres unmarked) [ketoconazole] | – | 14
